According to paper PMC10945480 (Journal of Medicinal Chemistry, 2024):

How the values were obtained:
[1] = system: glioma U87; assay: Cell viability, resazurin assay, U87; conditions: Homo sapiens, 24 h, read-out: U87 IC50
Protocol: (§3) Cells were maintained in a humidified incubator at 37 °C in 5% CO2, and cell viability was determined with the resazurin assay (Cayman Chemical, USA) after the incubation with compounds for indicated concentrations and times or DMSO as control.[72]

[2] = target: platelet surface PDI (Homo sapiens, UniProt P07237); assay: Cell surface PDI reductase activity on intact human platelets (Di-E-GSSG assay); conditions: read-out: Surface PDI IC50; intact human platelets, Di-E-GSSG, 5 μM DTT
Protocol: (§4) In this assay, a nonfluorescent substrate, dieosin glutathione disulfide (Di-E-GSSG), was reduced into a fluorescent product eosin-glutathione (E-GSH) by platelet surface PDI in the presence of 5 μM dithiothreitol (DTT).

[3] = Parallel artificial membrane permeability assay (PAMPA); conditions: 50 μM, 25 ℃, 3 h, verapamil = 100%, ranitidine = 0%
Protocol: 1. Parallel artificial membrane permeability assay (PAMPA). […]
evolution instruments from pION Inc. In the PAMPA assay, a set of sandwich plates consists of a 96-well microtiter donor plate at the bottom and a 96-well filter acceptor plate on the top from […]
The stock solutions of samples were prepared at 10 mM concentrations in DMSO and stored at 0 ℃ before use. Before being added to a 96-well filter plate, the stock solution was diluted first with buffer to achieve a final sample concentration of 50 μM and to reduce the DMSO concentration below 1% (v/v). Each well of the 96-well donor plate was filled with a 200 μL diluted sample solution (50 μM), and the 96-well filter acceptor plate was then wetted with a 5 μL 2% w/v dioleyoylphosphatidylcholine (DOPC) in n-dodecane and subsequently placed on the donor wells.
Immediately, the acceptor wells were filled with 200 μL of buffer solution and the PAMPA plate sandwich was sealed and incubated at 25 ℃ for 3 h. After reaching the permeation time, the PAMPA plate sandwich was separated and transferred to 96-well UV plates respectively. The amounts of drugs in both the donor and acceptor compartments were measured by comparing the experimental spectra with the UV spectrum (220∼400 nm) obtained from reference standards.

[4] = system: washed human platelets; assay: U46619-induced platelet aggregation; format: cell-based; conditions: Platelet; washed human platelets, U46619 (1 μM)
Protocol: (§1) The antiplatelet effects of the JUG derivatives were evaluated by measuring human platelet aggregation, which can be regulated by cell surface PDI. Platelet aggregation was induced with platelet activators U46619 (a mimetic of thromboxane A2) and collagen (binding to GPVI).
(§2) Washed human platelets were prepared from acid citrate dextrose-anticoagulated blood of healthy human volunteers as described previously.[73] The study was approved by the Institutional Review Board of Kaohsiung Medical University, and informed consent was obtained from every volunteer. Platelet aggregation was measured by using a turbidimetric aggregometer (Chrono-Log Co., USA) under stirring conditions (1200 rpm) at 37 °C. The extent of platelet aggregation was measured as the maximal increase of light transmission after the addition of the stimulators U46619 and collagen.[73] In the TCIPA assay, platelet aggregation was induced by A549 (1 × 10^4 cells/mL), MDA-MB-231 (1 × 10^2 cells/mL), or RPMI8226 (1 × 10^5 cells/mL) cancer cells in the presence of 0.375% plasma.[74]

[5] = system: human vascular endothelial EA.hy926 cells; assay: Cell viability, resazurin assay, EA.hy926; conditions: EA.hy 926, 24 h, read-out: EAhy926 IC50
Protocol: as §3

[6] = target: purified human recombinant PDI (rPDI) (Homo sapiens, UniProt P07237); assay: Recombinant PDI reductase activity (Di-E-GSSG assay); conditions: read-out: rPDI IC50; human recombinant PDI, Di-E-GSSG, 5 μM DTT
Sequence of purified human recombinant PDI (rPDI) (P07237 18-508): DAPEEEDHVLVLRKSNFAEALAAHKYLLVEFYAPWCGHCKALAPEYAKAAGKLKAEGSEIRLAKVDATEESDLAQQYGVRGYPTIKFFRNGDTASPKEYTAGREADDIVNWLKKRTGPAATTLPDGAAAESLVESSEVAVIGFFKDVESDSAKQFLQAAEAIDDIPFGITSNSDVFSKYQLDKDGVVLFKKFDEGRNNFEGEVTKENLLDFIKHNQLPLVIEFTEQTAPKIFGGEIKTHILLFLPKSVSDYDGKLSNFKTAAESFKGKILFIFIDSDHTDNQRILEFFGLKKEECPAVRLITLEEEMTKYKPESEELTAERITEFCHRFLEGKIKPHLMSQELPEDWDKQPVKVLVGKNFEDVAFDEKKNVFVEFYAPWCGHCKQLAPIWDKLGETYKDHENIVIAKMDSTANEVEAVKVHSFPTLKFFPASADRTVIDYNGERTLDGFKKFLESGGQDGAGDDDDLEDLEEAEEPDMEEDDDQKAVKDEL
Protocol: as §4

[7] = system: multiple myeloma RPMI8226; assay: Cell viability, resazurin assay, RPMI8226; conditions: for S.I. (EAhy926/RPMI8226), selectivity index: 24 h IC50 ratio; for IC50: Homo sapiens, RPMI-8226, 24 h, read-out: RPMI8226 IC50
Protocol: as §3

[8] = system: breast cancer MDA-MB-231; assay: Cell viability, resazurin assay, MDA-MB-231; conditions: Homo sapiens, MDA-MB-231, 24 h, read-out: MDA-MB-231 IC50
Protocol: as §3

[9] = system: washed human platelets; assay: Collagen-induced platelet aggregation; format: cell-based; conditions: Platelet; washed human platelets, collagen (5 μg/mL)
Protocol: as §1, §2

[10] = system: lung cancer A549; assay: Cell viability, resazurin assay, A549; conditions: Homo sapiens, A549, 24 h, read-out: A549 IC50
Protocol: as §3

[11] = system: washed human platelets coincubated with A549, MDA-MB-231, or RPMI8226 cancer cells; assay: Tumor cell-induced platelet aggregation (TCIPA); format: cell-based; conditions: anti-TF antibody 20 μg/mL, hirudin 0.01 μM, aspirin 100 μM, ticagrelor 1 μM
[12] = UPLC-MS analysis of compound metabolites in water with or without GSH; format: physicochemical; conditions: 37 °C, 30 min
Protocol: GSH is the major cellular nonprotein thiol, which exists within cells at millimolar concentrations (1–8 mM) while is present extracellularly at only a few micromolar.[53] The high concentrations of intracellular GSH thus may compete with the binding of PDI to covalent PDI inhibitors.[54] […] In this assay, the noncovalent PDI inhibitor isoquercetin was used as a negative control.
Compounds (400 μM) were incubated in water (250 μL) with or without GSH (4 mM) at 37 °C for 30 min. The compound mixture was diluted with methanol (250 μL) and used for UPLC-MS analysis Metabolite analysis was performed on an ACQUITY UPLC I-Class/SQ Detector 2 (Waters, Milford, USA). The reverse phase BEH C18 column (100 mm × 2.1 mm, 1.7 μm, Waters) and VanGuard BEH C18 guard column (5 mm × 2.1 mm, 1.7 μm, Waters) were used. All data were acquired by Empower 3. The mobile phase for LC separation was Millipore water (A) and acetonitrile (B), and the program was as follows: 0.00 min 90% A → 0.50 min 90% A → 6.50 min 5% A → 8.50 min 5% A → 8.60 min 90% A → 9.00 min 90% A; at a rate of 0.4 mL/min for 9.00 min with 5 μL per injection. The temperature of the column oven was maintained at 40 °C. Mass spectrometer parameters were set as follows: cone voltage, 40.0 V, for positive/negative ion mode; desolvation temperature, 200 °C; cone gas flow(N2), 1 L/h; and desolvation gas flow (N2), 650 L/h.

[13] = system: washed human platelets coincubated with A549 cancer cells; assay: Tumor cell-induced platelet secretion (PDGF, ATP); format: cell-based
Protocol: (a) Washed human platelets were coincubated with A549 cancer cells under the same conditions as described in Figure 4. Secretion of PDGF and ATP were determined with the enzyme-linked immunosorbent assay (ELISA) and bioluminescent assay, respectively. (b) A549 cancer cells were coincubated with washed human platelets at 37 °C and 5% CO2 in a cell culture incubator for 48 h. After washing with PBS, the numbers of viable cancer cells were determined by trypan blue exclusion. Data are mean ± SEM of at least three independent experiments.
Washed human platelets were coincubated with cancer cells under the same conditions as described in the TCIPA assay. After a 25 min incubation in the aggregometer, the samples were centrifuged at 13,000g for 1 min. The concentrations of PDGF-BB and ATP in the supernatants were determined using an ELISA kit (Abcam, Cambridge, UK) and an ATP bioluminescent assay kit (Sigma, MO, USA), respectively.[52]

Sequence of platelet surface PDI (P07237 18-508): as above

Molecule	IC50 [1] [µM]	IC50 [2] [µM]	Permeability (%) [3] [%]	IC50 [4] [µM]	IC50 [6] [µM]	IC50 [7] [µM]	IC50 [8] [µM]	IC50 [9] [µM]	IC50 [10] [µM]	stability in aqueous conditions (UPLC-MS) ([12]; 400 μM in water)	GSH adduct formation after GSH treatment (UPLC-MS) ([12]; 400 μM, GSH 4 mM)	IC50 [5] [µM]	S.I. (EAhy926/RPMI8226), selectivity index [7]	effect of comparators on TCIPA [11]	tumor cell-induced increase in extracellular PDGF and ATP (platelet secretion) [13]
O=C1C=C(Sc2ccc(F)cc2)C(=O)c2c(O)cccc21 [Compound 15, 2-((4-Fluorophenyl)thio)-8-hydroxynaphthalene-1,4-dione]	17.3 ± 0.68	1.67 ± 0.15	85.4	1.88 ± 0.18	1.16 ± 0.47	2.59 ± 0.25	10.6 ± 0.85	0.83 ± 0.11	38.3 ± 2.65	–	–	> 20	>7.7	–	–
hirudin	–	–	–	–	–	–	–	–	–	–	–	–	–	able to prevent the TCIPA	–
COc1ccc(SC2=CC(=O)c3cccc(O)c3C2=O)cc1 [Compound 8, 2-((4-Methoxyphenyl)thio)-8-hydroxynaphthalene-1,4-dione]	16.8 ± 0.62	1.37 ± 0.23	80.43	1.52 ± 0.08	1.44 ± 0.08	4.7 ± 0.08	6.63 ± 0.93	0.29 ± 0.06	14.9 ± 0.43	–	–	13.9 ± 1.17	3.0	–	–
O=C1C=C(Br)C(=O)c2c(O)cccc21 [Compound 17, 2-Bromo-8-hydroxynaphthalene-1,4-dione]	> 20	1.13 ± 0.25	16.9	1.76 ± 0.08	1.99 ± 0.63	4.21 ± 0.43	14.1 ± 0.79	0.52 ± 0.21	15.3 ± 0.74	–	–	> 20	>4.8	–	–
CCCSc1nc(N[C@@H]2C[C@H]2c2ccc(F)c(F)c2)c2nnn([C@@H]3C[C@H](OCCO)[C@@H](O)[C@H]3O)c2n1 [ticagrelor, reference compound]	–	–	–	–	–	–	–	–	–	–	–	–	–	no or little effect	not

Now from value to molecule, other results behind:

IC50 [1] [µM]	IC50 [2] [µM]	Permeability (%) [3] [%]	IC50 [4] [µM]	IC50 [6] [µM]	IC50 [7] [µM]	IC50 [8] [µM]	IC50 [9] [µM]	IC50 [10] [µM]	stability in aqueous conditions (UPLC-MS) ([12]; 400 μM in water)	GSH adduct formation after GSH treatment (UPLC-MS) ([12]; 400 μM, GSH 4 mM)	Molecule	IC50 [5] [µM]	S.I. (EAhy926/RPMI8226), selectivity index [7]	effect of comparators on TCIPA [11]	tumor cell-induced increase in extracellular PDGF and ATP (platelet secretion) [13]
12.6 ± 0.68	1.12 ± 0.31	61.4	1.35 ± 0.13	1.37 ± 0.26	0.57 ± 0.02	6.62 ± 1.79	0.35 ± 0.03	12 ± 1.47	–	–	COc1ccc(OC2=CC(=O)c3cccc(O)c3C2=O)cc1 [Compound 21, 2-(4-Methoxyphenoxy)-8-hydroxynaphthalene-1,4-dione]	6.03 ± 0.07	10.6	–	–
11.2 ± 1.01	0.47 ± 0.05	12.64	1.37 ± 0.03	2.27 ± 0.8	5.89 ± 0.32	16 ± 1.35	5.19 ± 1.22	17.55 ± 0.06	remained intact in aqueous conditions	only a small amount	COc1ccc(SC2=C(c3ccc(O)cc3O)C(=O)c3c(O)cccc3C2=O)cc1 [Compound 30, 2-(2,4-Dihydroxyphenyl)-3-((4-methoxyphenyl)thio)-8-hydroxynaphthalene-1,4-dione]	11 ± 0.33	1.9	–	–
> 20	1.2 ± 0.31	17.1	6.32 ± 0.3	2.01 ± 0.55	4.33 ± 0.34	> 20	2.92 ± 0.77	> 50	–	–	CC(C)(C)c1ccc(CSC2=CC(=O)c3cccc(O)c3C2=O)cc1 [Compound 20, 2-((4-(tert-Butyl)benzyl)thio)-8-hydroxynaphthalene-1,4-dione]	> 20	>4.6	–	–
